The text below walks through data of patent publication US20080132505A1 (Glaxo Group Limited, priority 2004, published 2008).

Like-named read-outs stand apart in the source and are kept apart here.

The test addresses human cannabinoid CB2 receptor (Homo sapiens, UniProt P34972). Nature of the test: Cannabinoid CB2 receptor agonist activity (yeast reporter assay, FDGlu fluorescence). The test is classed as cell-based. Conditions: for Emax: read-out: efficacy value (Emax relative to HU210) at the cloned human cannabinoid CB2 receptor. An outline of the steps:
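S. cerevisiae MMY23 expressing human CB2 with a Gpa1/Gαi3 chimeric G-protein, grown 24 h at 30 °C with agonist (1% DMSO) in selective media containing 10 mM 3-aminotriazole and FDGlu, pH 7.0. Fluorescein fluorescence (485/535 nm) fitted by four-parameter curve; Emax and EMR relative to HU210.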
Background: Reporter assays use an easily measured gene product as a stand-in for the process of interest.

Setting [1] is: EC50 value at the cloned human cannabinoid CB2 receptor.
[2] abbreviates: read-out: EC50 value at the cloned human cannabinoid CB2 receptor.

Sequence of human cannabinoid CB2 receptor (P34972 whole entry): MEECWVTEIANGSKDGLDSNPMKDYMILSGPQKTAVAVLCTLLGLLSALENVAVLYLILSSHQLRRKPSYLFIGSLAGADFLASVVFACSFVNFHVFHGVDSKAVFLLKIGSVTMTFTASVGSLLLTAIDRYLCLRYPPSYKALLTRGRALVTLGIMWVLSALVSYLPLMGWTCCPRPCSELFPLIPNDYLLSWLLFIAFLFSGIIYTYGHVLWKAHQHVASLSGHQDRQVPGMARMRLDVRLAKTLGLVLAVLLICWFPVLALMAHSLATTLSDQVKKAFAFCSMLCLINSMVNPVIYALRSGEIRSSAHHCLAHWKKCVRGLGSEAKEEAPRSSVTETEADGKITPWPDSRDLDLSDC

For the compound `COc1cc(Nc2ncc(C(=O)NCC3CCOCC3)c(C(F)(F)F)n2)cc(C(F)(F)F)c1` [Example 177, 2-(3-Methoxy-5-(trifluoromethyl)phenylamino)-4-trifluoromethyl-pyrimidine-5-carboxylic acid (tetrahydropyran-4-ylmethyl)-amide], the Emax (commonly the maximal effect, on the per cent scale that the assay sets) is above 50%. Further, the EC50 (usually the concentration needed to bring the measured effect to its halfway point) under setting [1] fell in the range of 20 to 300 nM. Consider `O=C(NCC1CCC1)c1cnc(Nc2ccc(Br)cc2Cl)nc1C(F)(F)F` [Example 227, 2-(2-Chloro-4-bromo-phenylamino)-4-trifluoromethyl-pyrimidine-5-carboxylic acid cyclobutylmethyl-amide], for which the Emax was above 50%. Besides, the EC50 under setting [1] lay within 20 to 300 nM. The matching figures for `O=C(NCC1CCOCC1)c1cnc(Nc2cc(F)cc(C(F)(F)F)c2)nc1C(F)(F)F` [Example 180, 2-(3-Fluoro-5-(trifluoromethyl)phenylamino)-4-trifluoromethyl-pyrimidine-5-carboxylic acid (tetrahydropyran-4-ylmethyl)-amide]: above 50% and 20 to 300 nM. In the case of `O=C(NCC1CCSCC1)c1cnc(Nc2ccc(Cl)cc2Cl)nc1C(F)(F)F` [Example 256, 2-(2,4-Dichlorophenylamino)-4-trifluoromethyl-pyrimidin-5-carboxylic acid (tetrahydrothiopyran-4-ylmethyl) amide], the Emax is above 50%. In addition, the 50% effective concentration (EC50) under setting [1] fell in the range of 20 to 300 nM. The matching figures for `O=C(c1cnc(Nc2cc(Cl)ccc2Cl)nc1C(F)(F)F)N1CCOCC1` [Example 9, 1-[2-(2,5-Dichlorophenylamino)-4-trifluoromethylpyrimidin-5-yl]-1-morpholin-4-yl-methanone]: above 50% and 20 to 300 nM. For `N#CCNC(=O)c1cnc(Nc2cccc(Cl)c2)nc1C(F)(F)F` [Example 26, 2-(3-Chloro-phenylamino)-4-trifluoromethyl-pyrimidine-5-carboxylic acid cyanomethyl-amide] the same measures were above 50% and 300 to 1000 nM.

In the case of `O=C(NCC1CCCCC1)c1cnc(Nc2ccc(F)c(Cl)c2)nc1C(F)(F)F` [Example 166, 2-(3-Chloro-4-fluorophenylamino)-4-trifluoromethyl-pyrimidine-5-carboxylic acid cyclohexylmethyl-amide], the maximal response (Emax) is above 50%. Moreover, under setting [1], the EC50 was in the range of 20 to 300 nM. Take `O=C(NCC1CCC1)c1cnc(Nc2cc(Cl)ccc2F)nc1C(F)(F)F` [Example 191, 2-(5-Chloro-2-fluorophenylamino)-4-trifluoromethyl-pyrimidine-5-carboxylic acid cyclobutylmethyl-amide]: the maximal response (Emax) is above 50%. Under setting [1], this compound yielded an EC50 of 20 to 300 nM. With `O=C(NCC1CCCCC1)c1cnc(Nc2ccc(Cl)c(Cl)c2)nc1C(F)(F)F` [Example 17, 2-(3,4-Dichlorophenylamino)-4-trifluoromethylpyrimidine-5-carboxylic acid cyclohexylmethyl-amide], the maximal response (Emax) was above 50%. Besides, the EC50 under setting [1] fell in the range of 20 to 300 nM. In the case of `O=C(NCc1ccnc(F)c1)c1cnc(Nc2ccc(Cl)cc2Cl)nc1C(F)(F)F` [Example 360, 2-(2,4-Dichloro-phenylamino)-4-trifluoromethyl-pyrimidine-5-carboxylic acid (2-fluoro-pyridin-4-ylmethyl)-amide], the EC50 under setting [1] fell in the range of 20 to 300 nM. For `O=C(NCC1CCCC1)c1cnc(Nc2ccc(C(F)(F)F)c(F)c2)nc1C(F)(F)F` [Example 97, 2-(4-Trifluoromethyl-3-fluorophenylamino)-4-trifluoromethyl-pyrimidine-5-carboxylic acid cyclopentylmethyl-amide], the EC50 under setting [2] was 300 to 1000 nM. With `O=C(NCC1CCOCC1)c1cnc(Nc2ccc(Br)cc2C(F)(F)F)nc1C(F)(F)F` [Example 254, 2-(2-Trifluoromethyl-4-bromo-phenylamino)-4-trifluoromethyl-pyrimidine-5-carboxylic acid (tetrahydro-pyran-4-ylmethyl)-amide], the Emax is above 50%. Under setting [1], this compound had an EC50 of 20 to 300 nM.

Turning to `O=C(NCC1CCCCC1)c1cnc(Nc2cc(F)cc(C(F)(F)F)c2)nc1C(F)(F)F` [Example 90, 2-(3-Fluoro-5-trifluoromethyl-phenylamino)-4-trifluoromethyl-pyrimidine-5-carboxylic acid cyclohexylmethyl-amide], the Emax was above 50%. Further, the concentration for a half-maximal effect (EC50) under setting [1] was 300 to 1000 nM. Consider `O=C(NCC1CCOCC1)c1cnc(Nc2cc(Br)cc(C(F)(F)F)c2)nc1C(F)(F)F` [Example 179, 2-(3-Bromo-5-(trifluoromethyl)phenylamino)-4-trifluoromethyl-pyrimidine-5-carboxylic acid (tetrahydropyran-4-ylmethyl)-amide], for which the Emax is above 50%. Besides, the EC50 under setting [1] was in the range of 20 to 300 nM. Under setting [1], `O=C(NCc1ccc(F)cc1)c1cnc(Nc2cc(Cl)ccc2F)nc1C(F)(F)F` [Example 349, 2-(5-Chloro-2-fluoro-phenylamino)-4-trifluoromethyl-pyrimidine-5-carboxylic acid 4-fluoro-benzylamide] yielded an EC50 of 20 to 300 nM. Compound `O=C(NCc1ccc(F)cc1)c1cnc(Nc2cc(Cl)ccc2Cl)nc1C(F)(F)F` [Example 366, 2-(2,5-Dichloro-phenylamino)-4-trifluoromethyl-pyrimidine-5-carboxylic acid 4-fluoro-benzylamide] yielded an EC50 under setting [1] of 20 to 300 nM. As for `O=C(NCc1ccccc1)c1cnc(Nc2ccc(Cl)c(Cl)c2)nc1C(F)(F)F` [Example 274, 2-(3,4-Dichlorophenylamino)-4-trifluoromethylpyrimidine-5-carboxylic acid benzyl-amide], the EC50 under setting [1] was in the range of 20 to 300 nM.

Turning to `O=C(NCC1CCC1)c1cnc(Nc2cc(Cl)ccc2Cl)nc1C(F)(F)F` [Example 202, 2-(2,5-Dichlorophenylamino)-4-trifluoromethyl-pyrimidine-5-carboxylic acid cyclobutylmethyl-amide], the maximal effect (Emax) was above 50%. The concentration giving a half-maximal response (EC50) under setting [1] lay in the range of 20 to 300 nM. On to `COc1cccc(Nc2ncc(C(=O)NCc3ccccc3)c(C(F)(F)F)n2)c1` [Example 295, 2-(3-Methoxy-phenylamino)-4-trifluoromethyl-pyrimidine-5-carboxylic acid benzylamide], for which the Emax is above 50%. For the same compound, under setting [1], the EC50 lay within 300 to 1000 nM.

On to `O=C(NCC1CCCCC1)c1cnc(Nc2cc(Cl)ccc2F)nc1C(F)(F)F` [Example 168, 2-(5-Chloro-2-fluorophenylamino)-4-trifluoromethyl-pyrimidine-5-carboxylic acid cyclohexylmethyl-amide], for which the maximal response (Emax) was above 50%. The same compound yielded an EC50 under setting [1] of 20 to 300 nM. Under setting [1], `O=C(NCc1ccnc(F)c1)c1cnc(Nc2cccc(F)c2)nc1C(F)(F)F` [Example 354, 2-(3-Fluoro-phenylamino)-4-trifluoromethyl-pyrimidine-5-carboxylic acid (2-fluoro-pyridin-4-ylmethyl)-amide] showed an EC50 of 20 to 300 nM. On the same count and under the same terms, the same measure for `O=C(NCc1ccnc(F)c1)c1cnc(Nc2ccc(Cl)c(Cl)c2)nc1C(F)(F)F` [Example 357, 2-(3,4-Dichloro-phenylamino)-4-trifluoromethyl-pyrimidine-5-carboxylic acid (2-fluoro-pyridin-4-ylmethyl)-amide]: 20 to 300 nM. On to `N#Cc1ccc(Nc2ncc(C(=O)NCC3CCCCC3)c(C(F)(F)F)n2)cc1` [Example 174, 2-(4-Cyanophenylamino)-4-trifluoromethyl-pyrimidine-5-carboxylic acid cyclohexylmethyl-amide], for which, under setting [2], the 50% effective concentration (EC50) was 20 to 300 nM. For the compound `O=C(NCC1CCC1)c1cnc(Nc2ccc(F)cc2F)nc1C(F)(F)F` [Example 223, 2-(2,4-Difluoro-phenylamino)-4-trifluoromethyl-pyrimidine-5-carboxylic acid cyclobutylmethyl-amide], the Emax was above 50%. Under setting [1], this compound came in with an EC50 of 20 to 300 nM.

Turning to `O=C(NCC1(O)CCOCC1)c1cnc(Nc2cccc(Br)c2)nc1C(F)(F)F` [Example 87, 2-(3-Bromophenyl-amino)-4-trifluoromethyl-pyrimidine-5-carboxylic acid (4-hydroxytetrahydropyran-4-ylmethyl)amide], the Emax was above 50%. Under setting [1], the EC50 was 300 to 1000 nM.

For `O=C(NC1CCCC1)c1cnc(Nc2cccc(Br)c2)nc1C(F)(F)F` [Example 207, 2-(3-Bromophenylamino)-4-trifluoromethyl-pyrimidine-5-carboxylic acid cyclopentylamide], the maximal response (Emax) is above 50%. Under setting [1], this compound showed an EC50 of 20 to 300 nM. For `O=C(NCC1CCOCC1)c1cnc(Nc2ccc(C(F)(F)F)cc2Cl)nc1C(F)(F)F` [Example 236, 2-(2-Chloro-4-trifluoromethyl-phenylamino)-4-trifluoromethyl-pyrimidine-5-carboxylic acid (tetrahydro-pyran-4-ylmethyl)-amide] the same measures were above 50% and 20 to 300 nM.

Consider `CC(C)(C)CCNC(=O)c1cnc(Nc2cccc(Cl)c2)nc1C(F)(F)F` [Example 27, 2-(3-Chloro-phenylamino)-4-trifluoromethyl-pyrimidine-5-carboxylic acid (3,3-dimethyl-butyl)-amide], for which the maximum response (Emax) was above 50%. The 50% effective concentration (EC50) under setting [1] lay within 300 to 1000 nM. For `O=C(NCC1CCCCC1)c1cnc(Nc2cccc(C(F)(F)F)c2F)nc1C(F)(F)F` [Example 243, 2-(2-Fluoro-3-trifluoromethyl-phenylamino)-4-trifluoromethyl-pyrimidine-5-carboxylic acid cyclohexylmethyl-amide] the same measures were above 50% and 20 to 300 nM. Under setting [1], `O=C(NCc1ccnc(F)c1)c1cnc(Nc2cccc(Cl)c2Cl)nc1C(F)(F)F` [Example 359, 2-(2,3-Dichloro-phenylamino)-4-trifluoromethyl-pyrimidine-5-carboxylic acid (2-fluoro-pyridin-4-ylmethyl)-amide] yielded an EC50 of 20 to 300 nM.
